Data reported in ChEMBL document CHEMBL2150850, “Recent advances in the development of selective human MAO-B inhibitors: (hetero)arylidene-(4-substituted-thiazol-2-yl)hydrazines” (Eur J Med Chem, 2012).

Tests used:
Homo sapiens = organism: Homo sapiens; test: Selectivity ratio of IC50 for human MAO-A to IC50 for human MAO-B
[1] = target: T1, Amine oxidase [flavin-containing] A (Homo sapiens, UniProt P21397); test: Inhibition of human MAO-A expressed in baculovirus infected BTI-TN-5B1-4 cells using p-tyramine as substrate at 100 uM incubated for 15 mins prior to substrate addition measured for 15 mins by Amplex red assay; conditions: for inhibition at 100 µM: BTI-TN-5B1-4, human, 0.25 h; for inhibition (INH): human, bti-tn-5b1-4, 0.25 h, 100 µM
T1 sequence (P21397 whole entry): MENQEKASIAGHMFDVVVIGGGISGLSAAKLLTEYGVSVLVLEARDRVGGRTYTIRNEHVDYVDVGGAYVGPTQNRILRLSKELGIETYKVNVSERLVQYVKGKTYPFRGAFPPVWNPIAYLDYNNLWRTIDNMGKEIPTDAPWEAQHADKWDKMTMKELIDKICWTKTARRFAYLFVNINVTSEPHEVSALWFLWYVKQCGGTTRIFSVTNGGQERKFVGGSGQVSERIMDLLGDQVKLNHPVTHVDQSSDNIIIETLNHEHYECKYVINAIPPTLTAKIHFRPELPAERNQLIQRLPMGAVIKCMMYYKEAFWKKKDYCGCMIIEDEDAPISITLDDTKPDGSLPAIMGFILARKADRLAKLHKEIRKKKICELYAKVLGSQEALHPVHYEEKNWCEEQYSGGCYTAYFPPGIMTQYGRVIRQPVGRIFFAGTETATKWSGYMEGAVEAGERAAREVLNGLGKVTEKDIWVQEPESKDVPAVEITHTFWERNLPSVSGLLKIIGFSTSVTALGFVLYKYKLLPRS

[2] = target: T2, Amine oxidase [flavin-containing] B (Homo sapiens, UniProt P27338); test: biochemical; assay type: cell-based, BTI-TN-5B1-4
T2 sequence (P27338 whole entry): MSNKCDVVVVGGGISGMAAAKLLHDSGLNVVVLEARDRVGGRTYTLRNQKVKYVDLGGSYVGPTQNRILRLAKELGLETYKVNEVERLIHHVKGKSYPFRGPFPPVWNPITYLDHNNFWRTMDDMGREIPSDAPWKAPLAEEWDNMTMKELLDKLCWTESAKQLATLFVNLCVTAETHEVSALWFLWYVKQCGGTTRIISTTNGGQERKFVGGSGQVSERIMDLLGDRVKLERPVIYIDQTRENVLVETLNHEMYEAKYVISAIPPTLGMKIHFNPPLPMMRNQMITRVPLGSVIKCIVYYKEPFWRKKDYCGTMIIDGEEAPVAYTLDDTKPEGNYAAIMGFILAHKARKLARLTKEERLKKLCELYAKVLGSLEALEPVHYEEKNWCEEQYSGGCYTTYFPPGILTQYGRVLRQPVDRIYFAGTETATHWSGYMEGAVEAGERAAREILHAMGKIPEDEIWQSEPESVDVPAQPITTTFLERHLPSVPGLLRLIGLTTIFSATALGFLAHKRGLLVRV
Description: Inhibition of human MAO-B expressed in baculovirus infected BTI-TN-5B1-4 cells using p-tyramine as substrate incubated for 15 mins prior to substrate addition measured for 15 mins by Amplex red assay

[3] = target: T2, Amine oxidase [flavin-containing] B; test: Inhibition of human MAO-B expressed in baculovirus infected BTI-TN-5B1-4 cells using p-tyramine as substrate at 100 uM incubated for 15 mins prior to substrate addition measured for 15 mins by Amplex red assay; conditions: for inhibition at 100 µM: BTI-TN-5B1-4, human, 0.25 h; for inhibition (INH): human, bti-tn-5b1-4, 0.25 h, 100 µM
[4] = target: T1, Amine oxidase [flavin-containing] A; test: Inhibition of human MAO-A expressed in baculovirus infected BTI-TN-5B1-4 cells using p-tyramine as substrate incubated for 15 mins prior to substrate addition measured for 15 mins by Amplex red assay

Row | Compound | Ratio IC50 (Homo sapiens) | inhibition at 100 µM [1] [%] | IC50 [2] [nM] | inhibition at 100 µM [3] [%] | inhibition (INH) [1] | inhibition (INH) [3] | IC50 [4] [nM]
1 | C/C(=N/Nc1nc(-c2ccc(F)cc2)cs1)c1ccncc1 | > 39400 | 40 | 2.54 | – | – | – | –
2 | Fc1ccc(-c2csc(N/N=C\c3cccs3)n2)c(F)c1 | > 6030 | 40 | 16.6 | – | – | – | –
3 | C/C(=N/Nc1nc(-c2ccc(F)cc2F)cs1)c1ccc2ccccc2c1 | – | – | – | 40 | Not Active | – | –
4 | O=[N+]([O-])c1ccc(-c2csc(N/N=C\c3cccnc3)n2)cc1 | – | – | – | – | Not Active | Not Active | –
5 | Fc1ccc(-c2csc(N/N=C\c3c[nH]c4ccccc34)n2)c(F)c1 | 29 | – | 529 | – | – | – | 15300
6 | Fc1ccc(-c2csc(N/N=C\c3ccc4c(c3)OCO4)n2)c(F)c1 | > 85 | 40 | 1170 | – | – | – | –
7 | C/C(=N/Nc1nc(-c2ccc(F)cc2F)cs1)c1cccnc1 | > 5430 | 40 | 18.4 | – | – | – | –
8 | C/C(=N/Nc1nc(-c2ccc(F)cc2)cs1)c1ccccn1 | 1720 | – | 24.3 | – | – | – | 41700
9 | Fc1ccc(-c2csc(N/N=C\c3ccncc3)n2)cc1 | > 890 | 40 | 112 | – | – | – | –
10 | Fc1ccc(-c2csc(N/N=C\c3cccs3)n2)cc1 | > 295 | 40 | 338 | – | – | – | –
11 | C/C(=N/Nc1nc(-c2ccc([N+](=O)[O-])cc2)cs1)c1ccccn1 | 1450 | – | 26.7 | – | – | – | 38700
12 | C/C(=N/Nc1nc(-c2ccc(C#N)cc2)cs1)c1cc2ccccc2oc1=O | – | – | – | – | Not Active | Not Active | –
13 | C/C(=N/Nc1nc(-c2ccc(C#N)cc2)cs1)c1cccs1 | > 32 | 40 | 3110 | – | – | – | –
14 | C/C(=N/Nc1nc(-c2ccc(C#N)cc2)cs1)c1cccnc1 | > 47800 | 40 | 2.09 | – | – | – | –
15 | Fc1ccc(-c2csc(N/N=C\c3ccco3)n2)c(F)c1 | 42 | – | 217 | – | – | – | 9110
16 | C/C(=N/Nc1nc(-c2ccc([N+](=O)[O-])cc2)cs1)c1cccs1 | – | – | 298 | – | Not Active | – | –
17 | O=[N+]([O-])c1ccc(-c2csc(N/N=C\c3ccc4c(c3)OCO4)n2)cc1 | – | – | – | – | Not Active | Not Active | –
18 | Fc1ccc(-c2csc(N/N=C\c3cccnc3)n2)cc1 | > 207 | 40 | 482 | – | – | – | –
19 | C/C(=N/Nc1nc(-c2ccc(F)cc2F)cs1)c1cccs1 | > 33200 | 40 | 3.01 | – | – | – | –

Row | Compound | Ratio IC50 (Homo sapiens) | inhibition at 100 µM [1] [%] | IC50 [2] [nM] | inhibition at 100 µM [3] [%] | inhibition (INH) [1] | inhibition (INH) [3] | IC50 [4] [nM]
20 | C/C(=N/Nc1nc(-c2ccc([N+](=O)[O-])cc2)cs1)c1ccncc1 | > 7620 | – | 13.1 | – | Not Active | – | –
21 | N#Cc1ccc(-c2csc(N/N=C\c3c[nH]c4ccccc34)n2)cc1 | > 131 | – | 762 | – | Not Active | – | –
22 | C/C(=N/Nc1nc(-c2ccc(C#N)cc2)cs1)c1ccc2ccccc2c1 | – | – | – | 40 | Not Active | – | –
23 | N#Cc1ccc(-c2csc(N/N=C\c3ccc4c(c3)OCO4)n2)cc1 | > 332 | 40 | 301 | – | – | – | –
24 | C/C(=N/Nc1nc(-c2ccc(F)cc2F)cs1)c1ccncc1 | > 5990 | 40 | 16.7 | – | – | – | –
25 | N#Cc1ccc(-c2csc(N/N=C\c3cccnc3)n2)cc1 | > 106 | 40 | 947 | – | – | – | –
26 | Fc1ccc(-c2csc(N/N=C\c3c[nH]c4ccccc34)n2)cc1 | > 173 | 40 | 578 | – | – | – | –
27 | C/C(=N/Nc1nc(-c2ccc(C#N)cc2)cs1)c1nccs1 | 1.4 | – | 2000 | – | – | – | 2850
28 | C/C(=N/Nc1nc(-c2ccc(C#N)cc2)cs1)c1ccccn1 | 2.9 | – | 996 | – | – | – | 2850
29 | Fc1ccc(-c2csc(N/N=C\c3ccc4c(c3)OCO4)n2)cc1 | > 93 | 40 | 1080 | – | – | – | –
30 | C/C(=N/Nc1nc(-c2ccc(C#N)cc2)cs1)c1ccncc1 | 44 | – | 436 | – | – | – | 19100
31 | C/C(=N/Nc1nc(-c2ccc(F)cc2F)cs1)c1ccco1 | > 2490 | 40 | 40.1 | – | – | – | –
32 | C/C(=N/Nc1nc(-c2ccc(F)cc2F)cs1)c1cc2ccccc2oc1=O | > 70 | – | 1420 | – | Not Active | – | –
33 | C/C(=N/Nc1nc(-c2ccc(C#N)cc2)cs1)c1ccccc1 | – | 40 | – | 40 | – | – | –
34 | C/C(=N/Nc1nc(-c2ccc([N+](=O)[O-])cc2)cs1)c1nccs1 | 24 | – | 366 | – | – | – | 8970
35 | C/C(=N/Nc1nc(-c2ccc(F)cc2)cs1)c1ccco1 | 18 | – | 320 | – | – | – | 5670
36 | C/C(=N/Nc1nc(-c2ccc(F)cc2)cs1)c1cc2ccccc2oc1=O | – | – | – | – | Not Active | Not Active | –
37 | C/C(=N/Nc1nc(-c2ccc(F)cc2)cs1)c1cccs1 | > 6460 | 40 | 15.5 | – | – | – | –
38 | O=[N+]([O-])c1ccc(-c2csc(N/N=C\c3cccs3)n2)cc1 | – | 40 | – | 40 | – | – | –

Row | Compound | Ratio IC50 (Homo sapiens) | inhibition at 100 µM [1] [%] | IC50 [2] [nM] | inhibition at 100 µM [3] [%] | inhibition (INH) [1] | inhibition (INH) [3] | IC50 [4] [nM]
39 | O=[N+]([O-])c1ccc(-c2csc(N/N=C\c3ccco3)n2)cc1 | – | 40 | – | 40 | – | – | –
40 | N#Cc1ccc(-c2csc(N/N=C\c3ccco3)n2)cc1 | > 67 | 40 | 1490 | – | – | – | –
41 | C/C(=N/Nc1nc(-c2ccc([N+](=O)[O-])cc2)cs1)c1cccnc1 | – | – | – | – | Not Active | Not Active | –
42 | C/C(=N/Nc1nc(-c2ccc([N+](=O)[O-])cc2)cs1)c1ccco1 | – | 40 | 3590 | – | – | – | –
43 | C/C(=N/Nc1nc(-c2ccc(C#N)cc2)cs1)c1ccco1 | – | 40 | – | 40 | – | – | –
44 | O=[N+]([O-])c1ccc(-c2csc(N/N=C\c3ccncc3)n2)cc1 | – | – | – | – | Not Active | Not Active | –
45 | Fc1ccc(-c2csc(N/N=C\c3ccncc3)n2)c(F)c1 | > 182 | – | 549 | – | Not Active | – | –
46 | O=[N+]([O-])c1ccc(-c2csc(N/N=C\c3cccc4ccccc34)n2)cc1 | – | – | – | – | Not Active | Not Active | –
47 | C/C(=N/Nc1nc(-c2ccc(F)cc2F)cs1)c1nccs1 | 421 | – | 13 | – | – | – | 5460
48 | Fc1ccc(-c2csc(N/N=C\c3ccco3)n2)cc1 | > 153 | 40 | 653 | – | – | – | –
49 | Fc1ccc(-c2csc(N/N=C\c3cccc4ccccc34)n2)cc1 | > 7.8 | 40 | 12800 | – | – | – | –
50 | O=C(NCCN1CCOCC1)c1ccc(Cl)cc1 [MOCLOBEMIDE] | – | – | – | – | – | Not Active | –
51 | Fc1ccc(-c2csc(N/N=C\c3cccc4ccccc34)n2)c(F)c1 | > 727 | 40 | 138 | – | – | – | –
52 | C/C(=N/Nc1nc(-c2ccc([N+](=O)[O-])cc2)cs1)c1ccccc1 | – | 40 | – | 40 | – | – | –
53 | N#Cc1ccc(-c2csc(N/N=C\c3cccs3)n2)cc1 | 294 | – | 153 | – | – | – | 45000
54 | C/C(=N/Nc1nc(-c2ccc([N+](=O)[O-])cc2)cs1)c1cc2ccccc2oc1=O | – | – | – | – | Not Active | Not Active | –
55 | N#Cc1ccc(-c2csc(N/N=C\c3cccc4ccccc34)n2)cc1 | > 91 | 40 | 1100 | – | – | – | –
56 | Fc1ccc(-c2csc(N/N=C\c3cccnc3)n2)c(F)c1 | > 504 | 40 | 199 | – | – | – | –
57 | O=[N+]([O-])c1ccc(-c2csc(N/N=C\c3c[nH]c4ccccc34)n2)cc1 | – | – | – | – | Not Active | Not Active | –
